The values below come from ChEMBL document CHEMBL5316315 (J Med Chem, 2023).

Usually IC50 stands for the concentration that gives 50% inhibition. Usually Tmax stands for the time at which the peak concentration occurs. By AUC(0-t) is commonly meant exposure summed from dosing to a finite time, without extrapolation to infinity. Read a low AUC(0-t) as less exposure. By half-life is commonly meant the time in which the quantity being followed falls by half. Read a high half-life as slow loss.

Activity calls are given as the source filed them. The calls are words filed in the database; no cut-off is given here.

The target of data set [1] is T1, N-terminal Xaa-Pro-Lys N-methyltransferase 1 (Homo sapiens, UniProt Q9BV86).
T1 sequence (Q9BV86 whole entry): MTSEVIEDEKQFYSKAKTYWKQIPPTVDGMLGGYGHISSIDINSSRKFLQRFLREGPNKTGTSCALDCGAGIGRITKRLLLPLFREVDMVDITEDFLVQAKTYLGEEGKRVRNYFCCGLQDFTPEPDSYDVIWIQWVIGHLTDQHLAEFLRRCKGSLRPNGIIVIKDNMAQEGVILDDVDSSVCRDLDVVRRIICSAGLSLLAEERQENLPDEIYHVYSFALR
As to the kind of experiment: Inhibition of N-terminal 6-his tagged TEV fused full length human NTMT1 (1 to 222 residues) expressed in Escherichia coli BL21-Codonplus(DE3)-RIL cells using GPKRIA peptide as substrate preincubated with compound for 10 mins followed by substrate addition and measured immediately by SAHH-coupled fluorescence analysis.

Data set [2] has as its target T2, Ceramide glucosyltransferase (Homo sapiens) (UniProt Q16739).
T2 sequence (whole entry): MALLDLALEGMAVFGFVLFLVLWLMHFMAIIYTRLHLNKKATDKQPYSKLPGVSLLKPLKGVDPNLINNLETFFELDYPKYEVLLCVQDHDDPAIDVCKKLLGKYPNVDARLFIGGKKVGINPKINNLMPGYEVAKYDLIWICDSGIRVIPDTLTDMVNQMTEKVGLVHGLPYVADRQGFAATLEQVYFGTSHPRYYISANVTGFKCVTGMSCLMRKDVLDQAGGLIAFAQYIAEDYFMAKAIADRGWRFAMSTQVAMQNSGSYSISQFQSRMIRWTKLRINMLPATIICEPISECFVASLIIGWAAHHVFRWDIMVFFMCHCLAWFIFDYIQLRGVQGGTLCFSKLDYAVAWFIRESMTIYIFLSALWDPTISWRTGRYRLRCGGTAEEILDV
The conditions noted are these: HCT-116, dose 30.0 nM, time 52.0 hrs.

A short description of data set [3]: Tmax in CD-1 mouse at 25 mg/kg, po measured upto 24 hrs. Type of data set: ADME, organism-based. As to conditions: in vivo.
Data set [4] can be described thus: Toxicity in Balb/c mouse assessed as effect on alert behaviour at 250 to 350 mg/kg, po administered as single dose for 2 weeks. Format: organism-based. As to conditions: in vivo, 336 h, dose 250-350 mg/kg.
The nature of data set [5]: Toxicity in Balb/c mouse assessed as effect on body weight loss at 250 to 350 mg/kg, po administered as single dose for 2 weeks. The conditions noted are these: in vivo, 336 h, dose 250-350 mg/kg. Format: organism-based.
A short description of data set [6]: Toxicity in Balb/c mouse assessed as effect on body weight loss at 100 to 200 mg/kg, po administered as single dose for 2 weeks. Format: organism-based. As to conditions: in vivo, 336 h, dose 100-200 mg/kg.
Data set [7] is described as follows: Toxicity in Balb/c mouse assessed as animal death at 400 mg/kg, po administered as single dose and measured 15 mins post administration. The conditions noted are these: in vivo, 0.25 h. Format: organism-based.
A short description of data set [8]: Drug concentration in CD-1 mouse plasma at 25 mg/kg, po measured after 4 hrs. Type of data set: ADME, organism-based.
Data set [9] is described as follows: Toxicity in Balb/c mouse assessed as effect on response at 100 to 200 mg/kg, po administered as single dose for 2 weeks. Format: organism-based. As to conditions: in vivo, 336 h, dose 100-200 mg/kg.
A short description of data set [10]: Toxicity in Balb/c mouse assessed as effect on bright behaviour at 250 to 350 mg/kg, po administered as single dose for 2 weeks. Type of data set: organism-based. As to conditions: in vivo, 336 h, dose 250-350 mg/kg.
Data set [11] is described as follows: AUClast in CD-1 mouse at 25 mg/kg, po measured upto 24 hrs. Type of data set: ADME, organism-based. Further details: time < 24 hrs, dose 25 mg/kg, route po. The conditions noted are these: in vivo.
Data set [12] is described as follows: Half-life in CD-1 mouse at 25 mg/kg, po measured upto 24 hrs. Format: ADME, organism-based. As to conditions: in vivo.
Data set [13] can be described thus: Dose normalized AUClast in CD-1 mouse at 25 mg/kg, po measured upto 24 hrs. Type of data set: ADME, organism-based. The conditions noted are these: in vivo.
Data set [14] is described as follows: Toxicity in Balb/c mouse assessed as effect on response at 250 to 350 mg/kg, po administered as single dose for 2 weeks. Type of data set: organism-based. The conditions noted are these: in vivo, 336 h, dose 250-350 mg/kg.

With `CN1CCC[C@H](OC(=O)NC(C)(C)c2csc(-c3ccc(F)cc3)n2)C1`, the 50% inhibitory concentration (IC50) in [1] worked out at 25 µM.

For the compound `CC(C)(NC(=O)O[C@@H]1CN2CCC1CC2)c1csc(-c2ccc(F)cc2O)n1`, the IC50 in [1] was 0.3 µM.

In the case of `CC(C)(NC(=O)O[C@@H]1CN2CCC1CC2)c1csc(-c2cncnc2)n1`, the IC50 in [1] is above 100 µM.

With `CNc1nc(C(C)(C)NC(=O)O[C@@H]2CN3CCC2CC3)cs1`, the IC50 in data set [1] was 50 µM.

With `CC(C)(NC(=O)Oc1cccnc1)c1csc(-c2ccc(F)cc2)n1`, the half-inhibitory concentration (IC50) in data set [1] is above 100 µM.

Take `CC(C)(NC(=O)O[C@@H]1CN2CCC1CC2)c1csc(-c2ccccn2)n1`: the IC50 in data set [1] stood at 3.7 µM.

On to `CC(C)(NC(=O)O[C@@H]1CN2CCC1CC2)c1csc(-c2ccc(F)cc2)n1`, for which the inhibition entry in [2] was “Active”.

With `CC(C)(NC(=O)O[C@@H]1CN2CCC1CC2)c1csc(-c2cccc([N+](=O)[O-])c2)n1`, the IC50 in data set [1] is 64 µM.

For `COc1ccc(-c2nc(C(C)(C)NC(=O)O[C@@H]3CN4CCC3CC4)cs2)cc1`, in [1], the IC50 is 54 µM.

Turning to `O=C(NCc1csc(-c2ccc(F)cc2)n1)O[C@@H]1CN2CCC1CC2`, in [1], the IC50 is above 100 µM.

Consider `CC(C)(NC(=O)O[C@@H]1CN2CCC1CC2)c1csc(-c2ccc(O)cc2)n1`, for which the IC50 in [1] is 25 µM.

As to `CC(C)(NC(=O)O[C@@H]1CN2CCC1CC2)c1csc(-c2ccco2)n1`, the half-maximal inhibitory concentration (IC50) in [1] was found to be 21 µM.

As for `CC(C)(NC(=O)O[C@@H]1CN2CCC1CC2)c1csc(-c2ccccc2N)n1`, in data set [1], the IC50 was found to be 7.1 µM.

Take `CC(C)(NC(=O)O[C@@H]1CN2CCC1CC2)c1csc(-c2ccc(F)c(O)c2)n1`: the time of peak concentration (Tmax) in [3] stood at 0.25 h. Further, the Activity result in [4] is given as “Non-Toxic”; in data set [5] it was “Non-Toxic”; in data set [6] it was “Non-Toxic”; in data set [7] it was “Toxic”; in data set [9] it was “Non-Toxic”; in data set [10], “Non-Toxic”. The Activity entry in [14] is on record as “Non-Toxic”. This compound also came in with a concentration at 4 h in [8] above 18.8 ng/mL. In data set [11], this compound gave an area under the curve AUC(0-t) at 24 h of 157 ng·h/mL. In data set [12], this compound showed a half-life of 2.63 h. For the same compound, the AUClast/dose in [13] is 6.27 ng·h/mL.

In the case of `CC(C)(NC(=O)O[C@@H]1CN2CCC1CC2)c1csc(-c2cccc3ccccc23)n1`, the half-maximal inhibitory concentration (IC50) in data set [1] worked out at 44 µM.

With `CC(C)(NC(=O)O[C@H]1CCCNC1)c1csc(-c2ccc(F)cc2)n1`, the concentration for half-maximal inhibition (IC50) in data set [1] was above 100 µM.

Consider `CC(C)(NC(=O)O[C@@H]1CN2CCC1CC2)c1csc(-c2ccccc2O)n1`, for which the IC50 in data set [1] stood at 4.6 µM.

As for `CC(C)(NC(=O)O[C@@H]1CN2CCC1CC2)c1csc(-c2ccc(C(=O)O)cc2)n1`, the 50% inhibitory concentration (IC50) in data set [1] is above 100 µM.

For `CC(C)(NC(=O)O[C@@H]1CN2CCC1CC2)c1csc(-c2cccc(N)c2)n1`, the IC50 in data set [1] turned out to be 7.6 µM.

For `CC(C)(NC(=O)O[C@@H]1CN2CCC1CC2)c1csc(-c2ccoc2)n1`, in data set [1], the IC50 was determined as 91 µM.

`CC(C)(NC(=O)O[C@@H]1CN2CCC1CC2)c1csc(-c2cccnc2)n1`: the 50% inhibitory concentration (IC50) in data set [1] came out at 2.8 µM.

With `CC(C)(C(=O)N[C@@H]1CN2CCC1CC2)c1csc(-c2ccc(F)cc2)n1`, the half-inhibitory concentration (IC50) in [1] was above 100 µM.

For the compound `CC(C)(NC(=O)O[C@@H]1CN2CCC1CC2)c1csc(-c2ccsc2)n1`, in data set [1], the IC50 was 9.1 µM.

Turning to `CCCN1CCC[C@H](OC(=O)NC(C)(C)c2csc(-c3ccc(F)cc3)n2)C1`, the concentration for half-maximal inhibition (IC50) in [1] amounted to 18 µM.

For the compound `CC(C)(NC(=O)O[C@@H]1CN2CCC1CC2)c1csc(I)n1`, the IC50 in data set [1] was found to be 46 µM.

On to `CC(C)(NC(=O)O[C@@H]1CN2CCC1CC2)c1csc(-c2ccc(F)nc2)n1`, for which the IC50 in [1] turned out to be 1.5 µM.

As for `CC(C)(NC(=O)O[C@@H]1CN2CCC1CC2)c1csc(-c2cccs2)n1`, in data set [1], the IC50 is 2.4 µM.

With `CC(C)c1nc(C(C)(C)NC(=O)O[C@@H]2CN3CCC2CC3)cs1`, in data set [1], the concentration for half-maximal inhibition (IC50) was above 100 µM.

`CC(C)(NC(=O)O[C@@H]1CN2CCC1CC2)c1csc(-c2ccc(N)cc2)n1`: the 50% inhibitory concentration (IC50) in data set [1] came out at 7.5 µM.

As to `CC(C)(NC(=O)O[C@@H]1CN2CCC1CC2)c1csc(-c2cccc(O)c2)n1`, the 50% inhibitory concentration (IC50) in data set [1] stood at 0.56 µM.

Consider `CC(C)(NC(=O)N[C@@H]1CN2CCC1CC2)c1csc(-c2ccc(F)cc2)n1`, for which, in [1], the half-inhibitory concentration (IC50) was determined as 40 µM.

As for `CC(C)(NC(=O)OCCN1CCCCC1)c1csc(-c2ccc(F)cc2)n1`, the IC50 in data set [1] was above 100 µM.
